Test results from ChEMBL document CHEMBL3045026, “Cytotoxic clerodane diterpenes from Glossocarya calcicola” (Phytochemistry, 2005).
≈ marks a conversion by molar mass, not a printed value.

Tests used:
[1] = tested on: HepG2; test: Cytotoxicity against Homo sapiens (human) HepG2 cells; assay type: functional, cell-based
[2] = Cytotoxicity against Drosophila melanogaster D.mel-2 cells; assay type: functional, cell-based

SMILES	IC50 [1]	IC50 [2]
C=C1CC[C@@H](OC(=O)C(C)C)[C@H]2[C@@]1(C)[C@@H](O)C(=O)C(=C)[C@]2(C)C[C@@H](OC(=O)/C(C)=C/C)[C@]1(O)COC(=O)C1 (relative stereo)	2.06 µg/mL (≈ 3.87 µM)	9.04 µg/mL (≈ 17 µM)
C=C1CC[C@@H](OC(=O)C(C)CC)[C@H]2[C@@]1(C)[C@@H](O)C(=O)C(=C)[C@]2(C)C[C@@H](OC(=O)/C(C)=C/C)[C@]1(O)COC(=O)C1 (relative stereo)	2.1 µg/mL (≈ 3.84 µM)	8.3 µg/mL (≈ 15.2 µM)
